Assays:
[1] = target: T1, skeletal SR (SERCA1a only) (Oryctolagus cuniculus, UniProt P04191); experiment: Ca-ATPase activity of skeletal SR (SSR), NADH-linked enzyme-coupled assay; format: biochemical, rabbit
T1 construct: Skeletal muscle SR membrane vesicles were isolated from longissimus dorsi obtained from New Zealand white rabbits; from tissue; host or cells: rabbit longissimus dorsi skeletal muscle, SR membrane vesicles
Method: To further examine the functional effects of Hit compounds, Ca-ATPase assays were performed on both skeletal SR (SERCA1a only) and cardiac SR (SERCA2a + PLB) at a series of Ca concentrations ranging from pCa 5 to 8.
Skeletal muscle SR membrane vesicles were isolated from longissimus dorsi obtained from New Zealand white rabbits, as previously described. Cardiac SR membrane vesicles were isolated from ventricular myocardium obtained from fresh pig hearts. All experimental protocols were reviewed and approved by University of Minnesota’s Institutional Animal Care and Use Committee, an Association for Assessment and Accreditation of Laboratory Animal Care institution.
An enzyme-coupled, NADH-linked ATPase assay was used to measure SERCA ATPase activity in 96-well microplates. Each well contained 0.8 μg (skeletal) or 2 μg (cardiac) of SR vesicles adjusted for the different SERCA contents of skeletal and cardiac SR, 50 mM MOPS (pH 7.0), 100 mM KCl, 5 mM MgCl2, 1 mM EGTA, 0.2 mM NADH, 1 mM phosphoenol pyruvate, 10 IU/mL of pyruvate kinase, 10 IU/mL of lactate dehydrogenase, 3.5 μg/mL of the Ca ionophore A23187, and CaCl2 added to set free [Ca] to the desired values. The assay was started upon the addition of ATP at a final concentration of 5 mM and read in a SpectraMax Plus microplate spectrophotometer rom Molecular Devices (Sunnyvale, CA).

[2] = system: skeletal muscle SR Ca-ATPase; design: method as in PMID 12022919; settings: high concentrations (50 µM); cited from earlier work
[3] = target: SERCA2a-PLB complex (GFP-SERCA2a / RFP-PLB in HEK293 cells) (Homo sapiens, UniProt P16615+P26678, C36A/C41F/C46A); experiment: FRET of SERCA2a-PLB biosensor in saponin-permeabilized cells at low and high Ca; settings: 100 nM Tg, low Ca (100 nM) vs high Ca (10 µM)
Sequence of SERCA2a-PLB complex (GFP-SERCA2a / RFP-PLB in HEK293 cells) (P16615 1-997 isoform P16615-2, stated change not applied): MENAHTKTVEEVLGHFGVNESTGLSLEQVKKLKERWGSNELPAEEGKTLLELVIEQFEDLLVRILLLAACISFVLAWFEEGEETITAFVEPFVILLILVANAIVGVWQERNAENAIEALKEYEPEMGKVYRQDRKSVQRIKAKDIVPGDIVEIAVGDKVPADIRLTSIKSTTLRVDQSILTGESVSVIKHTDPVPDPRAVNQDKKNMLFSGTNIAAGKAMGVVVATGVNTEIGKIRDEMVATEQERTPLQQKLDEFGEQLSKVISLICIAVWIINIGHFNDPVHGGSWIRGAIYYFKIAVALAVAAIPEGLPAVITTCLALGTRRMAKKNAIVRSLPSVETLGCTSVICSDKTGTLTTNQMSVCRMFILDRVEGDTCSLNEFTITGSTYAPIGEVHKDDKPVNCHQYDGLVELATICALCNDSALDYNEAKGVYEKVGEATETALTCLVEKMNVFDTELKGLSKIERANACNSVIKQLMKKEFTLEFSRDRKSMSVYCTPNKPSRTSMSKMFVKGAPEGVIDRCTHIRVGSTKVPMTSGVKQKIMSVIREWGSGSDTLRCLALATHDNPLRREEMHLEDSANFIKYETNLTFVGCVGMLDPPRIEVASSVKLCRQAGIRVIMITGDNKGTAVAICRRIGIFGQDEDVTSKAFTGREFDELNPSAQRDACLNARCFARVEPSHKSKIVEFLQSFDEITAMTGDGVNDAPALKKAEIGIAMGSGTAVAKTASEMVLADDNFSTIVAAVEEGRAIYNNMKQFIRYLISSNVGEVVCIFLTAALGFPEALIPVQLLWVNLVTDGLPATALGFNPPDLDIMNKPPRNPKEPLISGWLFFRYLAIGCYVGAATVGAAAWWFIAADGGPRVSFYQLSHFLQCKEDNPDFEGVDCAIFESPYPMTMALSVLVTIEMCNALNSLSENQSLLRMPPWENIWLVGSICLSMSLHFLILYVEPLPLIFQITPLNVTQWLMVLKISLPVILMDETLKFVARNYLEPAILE
Sequence of SERCA2a-PLB complex (GFP-SERCA2a / RFP-PLB in HEK293 cells) (P26678 whole entry C36A/C41F/C46A): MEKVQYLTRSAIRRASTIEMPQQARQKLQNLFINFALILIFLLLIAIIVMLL
Method: To test this, we quantified FRET changes in permeabilized cells under conditions of low Ca (100 nM) and high Ca (10 µM).
(a) Left- FLT measurements in saponin-permeabilized cells under conditions of low Ca (100 nM) and high Ca (10 µM), and in the absence and presence (100 nM) of the SERCA inhibitor thapsigargin (Tg). […] Error bars indicate SD (n = 3). Statistical differences determined using 1-way ANOVA followed by Tukey post hoc analysis (more detailed analysis is provided in Supplemental Table 4). *P ≤ 0.01 and N.S. indicating P ≥ 0.05.
To generate SERCA2a-PLB biosensor, HEK293 cells were transiently transfected using Lipofectamine 3000 with GFP-SERCA2a and RFP-PLB in a 1:7 molar ratio for the screen. Cells were then assayed 48 hours post-transfection. For cell permeabilization experiments, cells were trypsinized (TrypLE, Thermo Fischer Scientific), PBS-washed (three times), and resuspended in a homogenization buffer (20 mM MOPS, 0.5 MgCl2, protease inhibitor cocktail (Roche, Basel, Switzerland)). Saponin (Sigma-Aldrich) was added to a final concentration of 10 µg/mL and cells were incubated for 4 min at 37 °C water bath. Saponin was removed by centrifugation for 3 min, cells were washed twice with homogenization buffer, and resuspended in homogenization buffer.

T1 sequence (P04191 1-994 isoform P04191-2): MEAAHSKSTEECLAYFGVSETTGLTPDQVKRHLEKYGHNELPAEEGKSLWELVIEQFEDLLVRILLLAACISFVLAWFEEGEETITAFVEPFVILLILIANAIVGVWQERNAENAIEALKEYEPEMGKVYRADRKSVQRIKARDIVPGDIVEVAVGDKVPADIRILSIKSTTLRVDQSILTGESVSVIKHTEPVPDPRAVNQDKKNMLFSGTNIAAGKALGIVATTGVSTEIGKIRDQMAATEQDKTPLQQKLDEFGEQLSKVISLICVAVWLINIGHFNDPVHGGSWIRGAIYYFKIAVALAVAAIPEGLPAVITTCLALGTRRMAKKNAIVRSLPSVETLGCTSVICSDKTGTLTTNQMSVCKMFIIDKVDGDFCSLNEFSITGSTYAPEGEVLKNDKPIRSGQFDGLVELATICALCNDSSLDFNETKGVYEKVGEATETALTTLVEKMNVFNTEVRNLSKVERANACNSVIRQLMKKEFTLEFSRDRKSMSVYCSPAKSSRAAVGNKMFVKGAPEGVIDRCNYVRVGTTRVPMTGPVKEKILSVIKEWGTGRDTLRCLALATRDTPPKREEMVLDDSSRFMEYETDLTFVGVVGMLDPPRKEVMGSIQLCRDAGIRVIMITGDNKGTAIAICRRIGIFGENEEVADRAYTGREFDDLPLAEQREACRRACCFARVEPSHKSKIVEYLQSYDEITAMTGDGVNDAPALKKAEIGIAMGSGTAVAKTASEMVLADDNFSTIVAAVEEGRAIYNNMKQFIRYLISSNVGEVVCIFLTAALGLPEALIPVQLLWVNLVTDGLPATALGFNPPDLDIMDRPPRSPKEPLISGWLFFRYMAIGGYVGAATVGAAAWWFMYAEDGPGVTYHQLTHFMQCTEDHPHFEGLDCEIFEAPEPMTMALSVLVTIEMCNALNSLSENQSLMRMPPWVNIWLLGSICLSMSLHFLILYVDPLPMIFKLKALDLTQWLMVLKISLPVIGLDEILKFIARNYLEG

Molecule	EC50 ([1]; SSR) [µM]	Vmax @ 30 µM ([1]; SSR, 30 µM compound) [i.u.]	ΔVmax @ 30 µM ([1]; SSR, 30 µM compound, relative to DMSO control) [%]	EC50 ([1]; SSR, listed as ivermectin) [µM]	decrease of Vmax ([1]; skeletal SR) [%]	Ca-ATPase activity inhibited [2] [%]	effect on Ca-dependent decrease in FRET [3]
Ivermectin	5.75	0.32	-87.6	5.8	88	90	–
C/C=C(/C)C(=O)O[C@H]1C(C)=C2[C@H]([C@@H]1OC(=O)CCCCCCC)[C@@](C)(OC(C)=O)C[C@H](OC(=O)CCC)[C@@]1(O)[C@H]2OC(=O)[C@@]1(C)O [thapsigargin]	–	–	–	–	–	–	prevents the Ca-dependent decreases in FRET
